Experimental data from patent US20250250292A1, “DELIVERY SYSTEM TO TARGET GRAM-NEGATIVE BACTERIA” (priority 2022, published 2025).
In brackets after ≈: the same amount, converted by molar mass. Read-outs that look alike come from different tables or passages of the source.

Legend:
Type in all cases: cell-based
MRC5 fibroblast cells = assay: Cel Titer Glo cytotoxicity in MRC5 cells; conditions: Homo sapiens
Procedure: In order to facilitate development of the TPP containing antibiotics, a series of TPP linkers were prepared and tested for their toxicity in MRC5 cells. This library of linkers are shown below: The toxicity of these linkers in MRC5 cells after a 72 hour incubation.

[1] = test system: Escherichia coli (BL21(DE3)); assay: Resazurin blue (alamarBlue) bacterial cell viability assay, gram-negative model; conditions: for cytotoxic effect: E. coli BL21 (DE3)
Procedure: (§1) To compare the efficacy of pleuromutilin and the pleuromulin-TPP^+ ester pro-drug (AP-8-159B) gram-negative and gram-positive pathogen model system were used. Thus, Escherichia coli (BL21(DE3) from New England Biolabs) was used as a model strain for gram-negative bacteria and clinical isolates of Staphylococcus aureus were used as the model system for gram-positive bacteria (NR-49120, NR-46413 obtained from BEI Resources). All strains were cultured at 37° C. overnight in Luria Bertani (LB) (BD 244610). For testing the drug sensitivity, bacteria were grown in RPMI medium containing 10% fetal bovine serum or human serum.
A resazurin blue assay (alamarBlue®) (Toté et al., 2009; Costa et al., 2021; Wannigama et al., 2019; Travnickova et al., 2019) was used to evaluate bacterial cell viability. Resazurin (7-hydroxy-10-oxidophenoxazin-10-ium-3-one, sodium) is a blue fluorogenic dye used as a redox indicator in cell viability and proliferation assays for bacteria, yeast, or mammalian cells. The resazurin assay protocol is based on the reduction of oxidized non-fluorescent blue resazurin to a red fluorescent dye (resorufin), where NADPH dehydrogenase, without being bound by theory, is probably responsible for the transference of electrons from NADPH+H^+ to resazurin (Costa et al., 2021). The amount of resorufin produced is directly proportional to the number of living cells. This simple fluorometric-based assay rapidly quantifies metabolically active bacterial cells. Two controls were added to the plate to confirm the correct response from the resazurin. The positive control used evaluated media alone without bacterial culture to confirm there was no change from blue to red. The negative control evaluated the bacteria culture alone without added compound to provide a 100% growth control (red). Thus, resazurin sodium salt (Sigma R7017) was added to pleuromutilin or pleuromutilin-TPP+ prodrug treated bacterial samples at a final concentration of 0.02% and incubated for 8 hours at 37° C. Changes in fluorescence were measured on the Biotek Synergy 2 plate reader after an 8-hour incubation at 37° C. using an excitation filter range of 530-570 nm and an emission filter range of 590-620 nm. An increase in fluorescence intensity corresponded to bacterial growth and was quantified by comparison with untreated bacterial control samples. The ratio of (TThreshold (untreated)/TThreshold (prodrug-treated)) (where T=time) was used to quantify the change in bacterial growth. To minimize inter-experimental variations, TThreshold values were corrected by subtracting untreated control cultures to reach minimum detectable fluorescence. At the end of the experiment, wells were visualized for changes in color from blue (inviable bacteria) to red (viable bacteria) and a picture was taken.

[2] = test system: clinical isolates of Staphylococcus aureus (NR-49120, NR-46413); assay: Resazurin blue (alamarBlue) bacterial cell viability assay, gram-positive model; conditions: clinical strains of Staphylococcus aureus
Procedure: as §1
A resazurin blue assay (alamarBlue®) (Toté et al., 2009; Costa et al., 2021; Wannigama et al., 2019; Travnickova et al., 2019) was used to evaluate bacterial cell viability. Resazurin (7-hydroxy-10-oxidophenoxazin-10-ium-3-one, sodium) is a blue fluorogenic dye used as a redox indicator in cell viability and proliferation assays for bacteria, yeast, or mammalian cells. […] This simple fluorometric-based assay rapidly quantifies metabolically active bacterial cells. […] The positive control used evaluated media alone without bacterial culture to confirm there was no change from blue to red. The negative control evaluated the bacteria culture alone without added compound to provide a 100% growth control (red). […] Changes in fluorescence were measured on the Biotek Synergy 2 plate reader after an 8-hour incubation at 37° C. using an excitation filter range of 530-570 nm and an emission filter range of 590-620 nm. An increase in fluorescence intensity corresponded to bacterial growth and was quantified by comparison with untreated bacterial control samples. The ratio of (TThreshold (untreated)/TThreshold (prodrug-treated)) (where T=time) was used to quantify the change in bacterial growth. To minimize inter-experimental variations, TThreshold values were corrected by subtracting untreated control cultures to reach minimum detectable fluorescence. […]

Escherichia coli = assay: Antibacterial in vitro activity (MIC)
Procedure: (§2) These compounds were tested in an E. coli and Klebsiella strain to determine the change in OD600 as a function of concentration (FIG. 5, E. coli; FIG. 6, Klebsiella). The antibacterial activity of the compounds was further analyzed and activity was determine a variety of different bacterial strains.

Citrobacter freundii = assay: Antibacterial in vitro activity (MIC)
Procedure: as §2

Streptococcus pyogenes = assay: Antibacterial in vitro activity (MIC); conditions: isolate B0780, Clinical isolate
Procedure: as §2

Acinetobacter baumannii = assay: Antibacterial in vitro activity (MIC)
Procedure: as §2

Pseudomonas aeruginosa = assay: Antibacterial in vitro activity (MIC)
Procedure: as §2

Proteus mirabilis = assay: Antibacterial in vitro activity (MIC)
Procedure: as §2

Klebsiella pneumoniae = assay: Antibacterial in vitro activity (MIC)
Procedure: as §2

Enterobacter cloacae = assay: Antibacterial in vitro activity (MIC)
Procedure: as §2

Streptococcus pneumoniae = assay: Antibacterial in vitro activity (MIC)
Procedure: as §2

Haemophilus influenzae = assay: Antibacterial in vitro activity (MIC)
Procedure: as §2

Staphylococcus aureus = assay: Antibacterial in vitro activity (MIC)
Procedure: as §2

Streptococcus agalactiae = assay: Antibacterial in vitro activity (MIC); conditions: isolate B0790, Clinical isolate
Procedure: as §2

Enterococcus faecium = assay: Antibacterial in vitro activity (MIC); conditions: isolate D0459, Clinical isolate
Procedure: as §2

Salmonella typhimurium = assay: Antibacterial in vitro activity (MIC); conditions: Salmonella enterica, ATCC 13311 / TYPHIMURIUM; isolate D0109, ATCC13311
Procedure: as §2

[3] = Table 1, TPP+ linkers, MRC5 cells, 72-hour incubation
[4] = Table 2, cytotoxicity in MRC5 fibroblast cells
[5] = ATCC25922, isolate B0001, ATCC 25922, read-out: MIC
[6] = isolate B0159, Efflux pump deficient (ΔtolC)
[7] = isolate B0429, Efflux pump deficient (ΔacrAB)
[8] = isolate B1098, Clinical isolate, read-out: MIC
[9] = isolate D0120, Clinical isolate, read-out: MIC
[10] = isolate B0271, Clinical isolate
[11] = ATCC15473, isolate B0473, ATCC 15473
[12] = isolate B1062, Clinical isolate
[13] = ATCC27853, isolate B0015, ATCC 27853
[14] = ATCC29511, isolate B0016, ATCC 29511
[15] = isolate B0367, Clinical isolate
[16] = Proteus mirabilis, isolate D1301, Clinical isolate, read-out: MIC
[17] = isolate D1300, Clinical isolate
[18] = ATCC11228, isolate B0032, ATCC 11228
[19] = ATCC29519, isolate D0033, ATCC 29519
[20] = ATCC43816, isolate B0305, ATCC 43816
[21] = isolate D1089, Clinical isolate
[22] = isolate D1090, Clinical isolate
[23] = isolate B0078, Clinical isolate
[24] = isolate B0415, Clinical isolate
[25] = ATCC49247, isolate B0035, ATCC 49247
[26] = isolate B0126, Clinical isolate
[27] = ATCC49951, isolate B0009, ATCC 49951
[28] = isolate B0029, Clinical isolate

## O=C(O)CCCCC[P+](c1ccccc1)(c1ccccc1)c1ccccc1 [AP-3-195]
MRC5 fibroblast cells; [3]
  IC50: > 90 µM

## O=C(O)CC[P+](c1ccccc1)(c1ccccc1)c1ccccc1 [AP-4-8]
MRC5 fibroblast cells; [3]
  IC50: > 90 µM

## OCCCCCC[P+](c1ccccc1)(c1ccccc1)c1ccccc1 [AP-5-531]
MRC5 fibroblast cells; [3]
  IC50: > 90 µM

## OCCC[P+](c1ccccc1)(c1ccccc1)c1ccccc1 [AP-7-242]
MRC5 fibroblast cells; [3]
  IC50: > 90 µM

## CC(C)(O)C[P+](c1ccccc1)(c1ccccc1)c1ccccc1 [AP-7-253]
MRC5 fibroblast cells; [3]
  IC50: > 90 µM

## OCc1ccc([P+](c2ccccc2)(c2ccccc2)c2ccccc2)cc1 [AP-8-98]
MRC5 fibroblast cells; [3]
  IC50: 57.6 µM

## O=C(O)c1ccc([P+](c2ccccc2)(c2ccccc2)c2ccccc2)cc1 [AP-8-99-1]
MRC5 fibroblast cells; [3]
  IC50: > 90 µM

## O=C(OCCOCCO)c1ccc([P+](c2ccccc2)(c2ccccc2)c2ccccc2)cc1 [AP-8-99-2]
MRC5 fibroblast cells; [3]
  IC50: > 90 µM

## O=C(O)c1ccc(C[P+](c2ccccc2)(c2ccccc2)c2ccccc2)cc1 [AP-8-108, (4-Carboxybenzyl)triphenylphosphonium bromide]
[1]
  cytotoxic effect: no cytotoxic effect
[2]
  cytotoxic effect: no cytotoxic effect
MRC5 fibroblast cells; [3]
  IC50: > 90 µM
MRC5 fibroblast cells; [4]
  IC50: > 90 µM
Escherichia coli; [5]
  MIC: > 32 µg/mL
Escherichia coli; [6]
  MIC: > 32 µg/mL
Escherichia coli; [7]
  MIC: > 32 µg/mL
Escherichia coli; [8]
  MIC: > 32 µg/mL
Escherichia coli; [9]
  MIC: > 32 µg/mL

## Oc1ccc(C[P+](c2ccccc2)(c2ccccc2)c2ccccc2)cc1 [AP-8-109]
MRC5 fibroblast cells; [3]
  IC50: 60.6 µM

## Fc1cc(C[P+](c2ccccc2)(c2ccccc2)c2ccccc2)ccc1Cl [BI-182]
MRC5 fibroblast cells; [3]
  IC50: > 90 µM

## C[C@H]1c2cccc(O)c2C(=O)C2=C(O)[C@]3(O)C(=O)C(C(N)=O)=C(O)[C@@H](N(C)C)[C@@H]3[C@@H](O)[C@@H]21 [Doxycycline]
Citrobacter freundii; [10]
  MIC: 8 µg/mL (≈ 18 µM)
Citrobacter freundii; isolate B0286, AKH Vienna
  MIC: 2 µg/mL (≈ 4.5 µM)
Streptococcus pyogenes
  MIC: 16 µg/mL (≈ 36 µM)
Acinetobacter baumannii; [11]
  MIC: 0.5 µg/mL (≈ 1.13 µM)
Acinetobacter baumannii; [12]
  MIC: ≤ 0.03 µg/mL
Escherichia coli; [5]
  MIC: 0.5 µg/mL (≈ 1.13 µM)
Escherichia coli; [6]
  MIC: 0.25 µg/mL (≈ 0.563 µM)
Escherichia coli; [7]
  MIC: 0.25 µg/mL (≈ 0.563 µM)
Escherichia coli; [8]
  MIC: 16 µg/mL (≈ 36 µM)
Escherichia coli; [9]
  MIC: 2 µg/mL (≈ 4.5 µM)
Pseudomonas aeruginosa; [13]
  MIC: 16 µg/mL (≈ 36 µM)
Pseudomonas aeruginosa; [14]
  MIC: 32 µg/mL (≈ 72 µM)
Pseudomonas aeruginosa; [15]
  MIC: > 32 µg/mL
Proteus mirabilis; [16]
  MIC: 32 µg/mL (≈ 72 µM)
Proteus mirabilis; [17]
  MIC: 32 µg/mL (≈ 72 µM)
Klebsiella pneumoniae; [18]
  MIC: 0.25 µg/mL (≈ 0.563 µM)
Klebsiella pneumoniae; [19]
  MIC: 1 µg/mL (≈ 2.25 µM)
Klebsiella pneumoniae; [20]
  MIC: 1 µg/mL (≈ 2.25 µM)
Enterobacter cloacae; [21]
  MIC: > 32 µg/mL
Enterobacter cloacae; [22]
  MIC: 2 µg/mL (≈ 4.5 µM)
Streptococcus pneumoniae; [23]
  MIC: 16 µg/mL (≈ 36 µM)
Streptococcus pneumoniae; [24]
  MIC: 0.12 µg/mL (≈ 0.27 µM)
Haemophilus influenzae; [25]
  MIC: 0.12 µg/mL (≈ 0.27 µM)
Haemophilus influenzae; [26]
  MIC: 0.12 µg/mL (≈ 0.27 µM)
Staphylococcus aureus; [27]
  MIC: 0.12 µg/mL (≈ 0.27 µM)
Staphylococcus aureus; [28]
  MIC: 8 µg/mL (≈ 18 µM)
Staphylococcus aureus; isolate B1325, Clinical isolates
  MIC: 4 µg/mL (≈ 9 µM)
Streptococcus agalactiae
  MIC: 0.12 µg/mL (≈ 0.27 µM)
Enterococcus faecium
  MIC: 32 µg/mL (≈ 72 µM)
Salmonella typhimurium
  MIC: 0.5 µg/mL (≈ 1.13 µM)

## CC(C)C[C@H](NC(=O)[C@H](Cc1ccccc1)NC(=O)c1cnccn1)B(O)O [PS-341, bortezomib]
MRC5 fibroblast cells; [3]
  IC50: 0.007 µM
MRC5 fibroblast cells; [4]
  IC50: 0.0003 µM

## C=C[C@]1(C)C[C@@H](OC(=O)CO)[C@]2(C)[C@H](C)CC[C@]3(CCC(=O)[C@H]32)[C@@H](C)[C@@H]1O [Pleuromutilin]
[1]; E Coli BL21 (DE3)
  cytotoxicity potency: 25 µg/mL
[1]
  cytotoxic effect: much less cytotoxic
[2]
  cytotoxic effect: potent cytotoxic agents
MRC5 fibroblast cells; [4]
  IC50: > 90 µM
Citrobacter freundii; [10]
  MIC: > 128 µg/mL
Citrobacter freundii; isolate B0286, AKH Vienna
  MIC: > 128 µg/mL
Acinetobacter baumannii; [11]
  MIC: > 128 µg/mL
Acinetobacter baumannii; [12]
  MIC: > 128 µg/mL
Escherichia coli; [5]
  MIC: 128 µg/mL (≈ 338 µM)
Escherichia coli; isolate B0158, AcrAB-TolC efflux pump WT, read-out: MIC
  MIC: > 128 µg/mL
Escherichia coli; [6]
  MIC: 0.5 µg/mL (≈ 1.32 µM)
Escherichia coli; [7]
  MIC: 32 µg/mL (≈ 84.5 µM)
Escherichia coli; [8]
  MIC: > 128 µg/mL
Escherichia coli; [9]
  MIC: > 128 µg/mL
Pseudomonas aeruginosa; [13]
  MIC: > 128 µg/mL
Pseudomonas aeruginosa; [14]
  MIC: > 128 µg/mL
Pseudomonas aeruginosa; [15]
  MIC: > 128 µg/mL
Proteus mirabilis; [16]
  MIC: > 128 µg/mL
Proteus mirabilis; [17]
  MIC: >128 µg/mL
Klebsiella pneumoniae; [18]
  MIC: > 128 µg/mL
Klebsiella pneumoniae; [19]
  MIC: > 128 µg/mL
Klebsiella pneumoniae; [20]
  MIC: > 128 µg/mL
Enterobacter cloacae; [21]
  MIC: > 128 µg/mL
Enterobacter cloacae; [22]
  MIC: > 128 µg/mL
Streptococcus pneumoniae; [23]
  MIC: 4 µg/mL (≈ 10.6 µM)
Streptococcus pneumoniae; [24]
  MIC: 1 µg/mL (≈ 2.64 µM)
Haemophilus influenzae; [25]
  MIC: 4 µg/mL (≈ 10.6 µM)
Haemophilus influenzae; [26]
  MIC: 1 µg/mL (≈ 2.64 µM)
Staphylococcus aureus; [27]
  MIC: 1 µg/mL (≈ 2.64 µM)
Staphylococcus aureus; [28]
  MIC: 1 µg/mL (≈ 2.64 µM)
Salmonella typhimurium
  MIC: 128 µg/mL (≈ 338 µM)
